According to the NIST ThermoML archive (doi:10.1016/j.fluid.2014.08.002):
± gives the expanded uncertainty stated by the source.

Settings: 298.15 K; 101.3 kPa; Liquid; Vibrating tube method

Row | SMILES | mass density [kg/m3]
1 | CC1(C)OCCO1 [2,2-dimethyl-1,3-dioxolane] | 944.2 ± 0.3
2 | CCO [ethanol] | 789.5 ± 0.2
3 | CCCCCCC [heptane] | 683.8 ± 0.3
4 | Cc1ccccc1 [toluene] | 866.9 ± 0.2
